The results in this text go back to US20220016135A1, “TREATING BREAST CANCER WITH HORMONE RECEPTOR MODULATORS” (UNIVERSITY OF MIAMI, priority 2020, published 2022).

Assay type in all cases: cell-based, human
One assay deals with MDA-MB-468. The assay is described as follows: cell proliferation assay (cell titer blue), MDA-MB-468. To be noted: MDA-MB-468 (HR1, VDR+), Calcitrol 25 nM alone; FIG. 24A-24C.
A further assay deals with SUM159. The assay is described as follows: cell proliferation assay (cell titer blue), SUM159. To be noted: SUM159 (HR1, VDR+), Calcitrol 25 nM alone; FIG. 24A-24C.
A further assay has as its system BT20. The assay is described as follows: cell proliferation assay (cell titer blue), BT20. To be noted: BT20 (HR1, VDR+), Calcitrol 25 nM alone; FIG. 24A-24C.
A further assay has as its system MDA-MB-453. The assay is described as follows: cell proliferation assay, MDA-MB-453. To be noted: ER-negative control cell line MDA-MB-453, ICI 182,780 100 nM; FIG. 24H.

Structures are written as SMILES.

Turning to `C=C1/C(=C\C=C2/CCC[C@]3(C)[C@@H]([C@H](C)CCCC(C)(C)O)CC[C@@H]23)C[C@@H](O)C[C@@H]1O` [Calcitrol, Calcitriol], the proliferation result with MDA-MB-468, in the assay on SUM159 and in the assay with BT20 was “reduction in proliferation” throughout.

As to `C[C@]12CC[C@@H]3c4ccc(O)cc4C[C@@H](CCCCCCCCC[S+]([O-])CCCC(F)(F)C(F)(F)F)[C@H]3[C@@H]1CC[C@@H]2O` (stereo partly shown) [ICI 182,780], the “inhibition of cell proliferation” value in the assay with MDA-MB-453 is recorded as “no inhibition of cell proliferation”.
